Data set [1] is described as follows: Cytotoxicity against human HuH7 cells. Format: cell-based, Huh-7.
A further data set deals with CCRF-CEM. As to the kind of experiment: Cytotoxicity against human CEM cells. In kind it is cell-based.
In a further data set the test system is Vero. As to the kind of experiment: Cytotoxicity against african green monkey Vero cells. Format: cell-based. To be noted: chlorocebus sabaeus.
In the next data set the test system is PBMC. The data set can be described thus: Cytotoxicity against human PBMC cells. Format: cell-based. As to conditions: pbmc.
Data set [2] has as its target T1, Nonstructural protein 5A (Hepatitis C virus) (UniProt Q5L478).
T1 sequence (whole entry): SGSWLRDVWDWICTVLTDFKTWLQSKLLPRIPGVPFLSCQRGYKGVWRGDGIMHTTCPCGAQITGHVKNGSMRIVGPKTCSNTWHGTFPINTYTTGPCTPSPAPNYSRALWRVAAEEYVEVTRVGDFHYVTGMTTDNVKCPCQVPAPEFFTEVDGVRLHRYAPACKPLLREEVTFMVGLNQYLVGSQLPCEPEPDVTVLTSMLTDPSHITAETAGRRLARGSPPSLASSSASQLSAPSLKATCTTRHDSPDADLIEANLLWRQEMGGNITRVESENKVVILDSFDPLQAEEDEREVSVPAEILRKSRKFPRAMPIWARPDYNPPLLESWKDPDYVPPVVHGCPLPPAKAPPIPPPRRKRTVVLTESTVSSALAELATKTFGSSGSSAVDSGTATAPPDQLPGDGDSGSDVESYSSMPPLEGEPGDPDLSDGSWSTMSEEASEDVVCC
As to the kind of experiment: Inhibition of HCV NS5A assessed as antiviral activity against HCV by viral replicon assay. To be noted: Hepacivirus hominis. A general note: In antiviral work, replicon cells carry a viral genome segment that copies itself.

The nature of data set [3]: Chemical stability in phosphate buffer assessed as compound degradation at pH 7 at 20 degC measured between 2 to 48 hrs during 48 hrs incubation period. In kind it is physicochemical. As to conditions: pH 7, 48 h.
The nature of data set [4]: Chemical stability in phosphate buffer assessed as compound degradation at pH 3 at 20 degC measured between 1 to 48 hrs during 48 hrs incubation period. As to conditions: pH 3, 48 h.
In data set [5] the test system is Liver microsomes. As to the kind of experiment: Intrinsic clearance in human liver microsomes assessed per mg protein at 1 uM measured 5 to 60 mins post dose by LC-MS/MS nethod. In kind it is ADME, Microsome. (In general: Liver microsomes are a subcellular fraction often used to study metabolism.)
For data set [6], the system named is Liver microsomes. The data set can be described thus: Half life in human liver microsomes at 1 uM measured 5 to 60 mins post dose by LC-MS/MS nethod. Format: ADME, Microsome.
Data set [7] can be described thus: Cytotoxicity against human primary lymphocytes. To be noted: lymphocyte. In kind it is cell-based.
The next data set has as its target Cytochrome P450 2C9 (Homo sapiens, UniProt P11712). The data set can be described thus: Inhibition of CYP2C9. Format: ADME.

The CC50 is the concentration at which the toxic effect on the cells reaches its halfway point. By EC90 is commonly meant the point of the concentration-response curve where the effect stands at 90%. One may read the pIC50 as the negative decadic logarithm of the IC50, by convention in mol/L.

pIC50: −log10 of the molar value.

Sequence of Cytochrome P450 2C9 (P11712 whole entry): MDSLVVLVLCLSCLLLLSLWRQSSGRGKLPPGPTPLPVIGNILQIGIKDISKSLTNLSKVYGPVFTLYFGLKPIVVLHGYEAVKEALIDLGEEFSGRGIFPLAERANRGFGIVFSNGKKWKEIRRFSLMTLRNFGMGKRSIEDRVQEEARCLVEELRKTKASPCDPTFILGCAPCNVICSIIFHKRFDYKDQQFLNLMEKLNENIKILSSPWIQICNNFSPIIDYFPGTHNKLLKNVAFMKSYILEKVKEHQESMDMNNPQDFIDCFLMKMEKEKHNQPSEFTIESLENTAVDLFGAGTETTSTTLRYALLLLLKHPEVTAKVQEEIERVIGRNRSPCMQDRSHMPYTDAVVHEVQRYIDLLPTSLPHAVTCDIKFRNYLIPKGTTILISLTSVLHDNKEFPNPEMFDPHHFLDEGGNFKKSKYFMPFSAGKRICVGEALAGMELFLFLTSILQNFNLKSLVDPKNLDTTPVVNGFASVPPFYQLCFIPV

On to `COC(=O)N[C@H](C(=O)N1C[C@@H](N=[N+]=[N-])C[C@H]1c1nc(Cl)c(-c2ccc(-c3ccc(-c4[nH]c([C@@H]5C[C@H](N=[N+]=[N-])CN5C(=O)[C@@H](NC(=O)OC)C(C)C)nc4Cl)cc3)cc2)[nH]1)C(C)C`, for which the CC50 in data set [1] is over 1 µM; in the data set on CCRF-CEM, 4 µM; in the data set on Vero, 98.1 µM; in the data set with PBMC it was 3.3 µM. In [2], the EC90 came out at 0.0746 nM.
On to `COC(=O)N[C@H](C(=O)N1CCC[C@H]1c1nc(Br)c(-c2ccc(-c3ccc(-c4[nH]c([C@@H]5CCCN5C(=O)[C@@H](NC(=O)OC)C(C)C)nc4Br)cc3)cc2)[nH]1)C(C)C`, for which the CC50 is over 1 µM in data set [1], 5.7 µM with CCRF-CEM, 84 µM in the data set on Vero and 2.9 µM in the data set on PBMC. For the same compound, the Stability result in data set [3] and in data set [4] was “Stable” throughout. In the data set on Liver microsomes [5], this compound had a CLint of 10.3 µL/min/mg. For the same compound, the t1/2 in the data set with Liver microsomes [6] amounted to 67.3 min. In data set [2], the EC90 is 0.014 nM.
As for `COC(=O)N[C@H](C(=O)N1C[C@@H](n2cc(-c3ccccc3)nn2)C[C@H]1c1ncc(-c2ccc(-c3ccc(-c4cnc([C@@H]5C[C@H](n6cc(-c7ccccc7)nn6)CN5C(=O)[C@@H](NC(=O)OC)C(C)C)[nH]4)cc3)cc2)[nH]1)C(C)C`, the CC50 was over 1 µM in data set [1], over 100 µM with Vero and 96 µM in the data set on PBMC. Moreover, the EC90 in data set [2] was over 10 nM.
As to `COC(=O)N[C@H](C(=O)N1CCC[C@H]1c1nc(-c2ccco2)c(-c2ccc(-c3ccc(-c4[nH]c([C@@H]5CCCN5C(=O)[C@@H](NC(=O)OC)C(C)C)nc4-c4ccco4)cc3)cc2)[nH]1)C(C)C`, the CC50 was over 1 µM in data set [1], 2.9 µM in the data set with CCRF-CEM, over 100 µM with Vero and 49.2 µM in the data set on PBMC. Also, in data set [2], the EC90 is 0.097 nM.
For `COC(=O)N[C@H](C(=O)N1C[C@H](N=[N+]=[N-])C[C@H]1c1nc(Br)c(-c2ccc(-c3ccc(-c4[nH]c([C@@H]5C[C@@H](N=[N+]=[N-])CN5C(=O)[C@@H](NC(=O)OC)C(C)C)nc4Br)cc3)cc2)[nH]1)C(C)C`, in that order: over 1 µM, 10.8 µM, over 100 µM, 19.8 µM and 0.0216 nM.
On to `COC(=O)N[C@H](C(=O)N1CCC[C@H]1c1nc(-c2ccccc2)c(-c2ccc(-c3ccc(-c4[nH]c([C@@H]5CCCN5C(=O)[C@@H](NC(=O)OC)C(C)C)nc4-c4ccccc4)cc3)cc2)[nH]1)C(C)C`, for which the CC50 in data set [1] was over 1 µM; with CCRF-CEM, 37.4 µM; in the data set on Vero, over 100 µM; in the data set on PBMC, over 100 µM. In addition, in data set [2], the EC90 stood at 0.7 nM.
Regarding `COC(=O)N[C@H](C(=O)N1CCC[C@H]1c1nc(-c2cccs2)c(-c2ccc(-c3ccc(-c4[nH]c([C@@H]5CCCN5C(=O)[C@@H](NC(=O)OC)C(C)C)nc4-c4cccs4)cc3)cc2)[nH]1)C(C)C`, the CC50 was over 1 µM in data set [1], over 100 µM in the data set on CCRF-CEM, over 100 µM with Vero and 44.6 µM in the data set with PBMC. Moreover, the EC90 in [2] was found to be 0.3 nM.
`COC(=O)N[C@H](C(=O)N1CCC[C@H]1c1nc(I)c(-c2ccc(-c3ccc(-c4[nH]c([C@@H]5CCCN5C(=O)[C@@H](NC(=O)OC)C(C)C)nc4I)cc3)cc2)[nH]1)C(C)C`: the CC50 was over 1 µM in data set [1], 35 µM in the data set with CCRF-CEM, over 100 µM in the data set with Vero and 4.7 µM in the data set on PBMC. Moreover, the Stability result in data set [3] and in data set [4] was “Stable” in each case. For the same compound, the Activity result in data set [7] is listed as “Toxic”. The compound also yielded a CLint in the data set on Liver microsomes [5] of 18 µL/min/mg. Also, the t1/2 with Liver microsomes [6] was found to be 38.5 min. In addition, the EC90 in data set [2] is 0.011 nM.
Turning to `COC(=O)N[C@H](C(=O)N1C[C@@H](N=[N+]=[N-])C[C@H]1c1nc(Br)c(-c2ccc(-c3ccc(-c4[nH]c([C@@H]5C[C@H](N=[N+]=[N-])CN5C(=O)[C@@H](NC(=O)OC)C(C)C)nc4Br)cc3)cc2)[nH]1)C(C)C`, the values for the CC50 (in data set [1]; with CCRF-CEM; in the data set on PBMC) were over 1 µM, 4.5 µM and 3.4 µM, respectively. In addition, the EC90 in [2] came out at 0.0553 nM.
As for `COC(=O)N[C@H](C(=O)N1C[C@H](n2cc(C(=O)OC)nn2)C[C@H]1c1ncc(-c2ccc(-c3ccc(-c4cnc([C@@H]5C[C@@H](n6cc(C(=O)OC)nn6)CN5C(=O)[C@@H](NC(=O)OC)C(C)C)[nH]4)cc3)cc2)[nH]1)C(C)C`, the CC50 was over 1 µM in data set [1], 10.7 µM in the data set with CCRF-CEM, over 100 µM with Vero and 6.6 µM with PBMC. In addition, the concentration for an effect of 90% (EC90) in [2] is 0.0428 nM.
Compound `COC(=O)N[C@H](C(=O)N1CCC[C@H]1c1nc(-c2ccc(-c3ccc(-c4c[nH]c([C@@H]5CCCN5C(=O)[C@@H](NC(=O)OC)C(C)C)n4)cc3)cc2)c[nH]1)C(C)C` gave a pIC50 against Cytochrome P450 2C9 of 4.23. The compound also gave a CC50 in data set [1] of over 1 µM. Besides, the t1/2 in the data set on Liver microsomes [6] is 56.3 min.
On to `COC(=O)N[C@H](C(=O)N1C[C@H](n2cc(-c3ccccc3)nn2)C[C@H]1c1ncc(-c2ccc(-c3ccc(-c4cnc([C@@H]5C[C@@H](n6cc(-c7ccccc7)nn6)CN5C(=O)[C@@H](NC(=O)OC)C(C)C)[nH]4)cc3)cc2)[nH]1)C(C)C`, for which the CC50 in data set [1] was over 1 µM; in the data set on CCRF-CEM, over 100 µM; in the data set on PBMC, over 100 µM. The EC90 in data set [2] was 9.2 nM.
As for `COC(=O)N[C@H](C(=O)N1CCC[C@H]1c1ncc(-c2ccc(-c3ccc(-c4[nH]c([C@@H]5CCCN5C(=O)[C@@H](NC(=O)OC)C(C)C)nc4F)cc3)cc2)[nH]1)C(C)C`, the CC50 in [1] is over 1 µM; in the data set with CCRF-CEM it was 2.8 µM; in the data set on Vero it was 83 µM; in the data set on PBMC, 16 µM. Besides, the EC90 in data set [2] came out at 0.0525 nM.
Take `COC(=O)N[C@H](C(=O)N1C[C@H](N=[N+]=[N-])C[C@H]1c1ncc(-c2ccc(-c3ccc(-c4[nH]c([C@@H]5C[C@@H](N=[N+]=[N-])CN5C(=O)[C@@H](NC(=O)OC)C(C)C)nc4Cl)cc3)cc2)[nH]1)C(C)C`: the CC50 is over 1 µM in [1], 31 µM with CCRF-CEM, over 100 µM in the data set with Vero and 9.7 µM in the data set on PBMC. The EC90 in data set [2] was determined as 0.0295 nM.
As to `COC(=O)N[C@H](C(=O)N1C[C@@H](n2cc(C(=O)OC)nn2)C[C@H]1c1ncc(-c2ccc(-c3ccc(-c4cnc([C@@H]5C[C@H](n6cc(C(=O)OC)nn6)CN5C(=O)[C@@H](NC(=O)OC)C(C)C)[nH]4)cc3)cc2)[nH]1)C(C)C`, the figures for the CC50 (in data set [1]; in the data set on CCRF-CEM; in the data set on PBMC) were over 1 µM, over 100 µM and over 100 µM, respectively. The EC90 in [2] is over 10 nM.
For `COC(=O)N[C@H](C(=O)N1C[C@H](N=[N+]=[N-])C[C@H]1c1nc(Cl)c(-c2ccc(-c3ccc(-c4[nH]c([C@@H]5C[C@@H](N=[N+]=[N-])CN5C(=O)[C@@H](NC(=O)OC)C(C)C)nc4Cl)cc3)cc2)[nH]1)C(C)C`, the CC50 in [1] was over 1 µM; in the data set with CCRF-CEM, 3.8 µM; with Vero, over 100 µM; in the data set with PBMC it was 7.8 µM. Moreover, in data set [2], the EC90 was found to be 0.0096 nM.
Consider `COC(=O)N[C@H](C(=O)N1C[C@@H](N=[N+]=[N-])C[C@H]1c1ncc(-c2ccc(-c3ccc(-c4cnc([C@@H]5C[C@H](N=[N+]=[N-])CN5C(=O)[C@@H](NC(=O)OC)C(C)C)[nH]4)cc3)cc2)[nH]1)C(C)C`, for which the CC50 is over 1 µM in data set [1], 18.4 µM in the data set on CCRF-CEM, over 100 µM in the data set with Vero and 20.3 µM in the data set on PBMC. The EC90 in [2] was 0.0352 nM.
`COC(=O)N[C@H](C(=O)N1CCC[C@H]1c1ncc(-c2ccc(-c3ccc(-c4cnc([C@@H]5CCCN5C(=O)[C@@H](NC(=O)OC)C(C)C)[nH]4)cc3)cc2)[nH]1)C(C)C`: the EC90 in [2] came out at 0.02 nM.

The record behind these values is ChEMBL document CHEMBL2046362, “Synthesis and evaluation of novel potent HCV NS5A inhibitors” (Bioorg Med Chem Lett, 2012).
